According to patent publication US20020076693A1, “Novel cell surface receptor for HIV retroviruses, therapeutic and diagnostic uses” (priority 1997, published 2002):
Several values for one entry are separate records, joined by “and”; a condition that tells them apart may be missing. Identical values can stand only once.

What was measured:
[1] = test system: V3 loop-BPs (nucleolin, PHAP II, PHAP I); assay: BIAcore biosensor binding to immobilized V3 loop-BPs; design: species or system human; conditions: for Ka (equilibrium affinity constant) / ka (association rate constant) / kd (dissociation rate constant): binding protein(s) V3 loop-BPs, BIAcore; for equilibrium affinity constant Ka: binding to the V3 loop-BPs
CD4 = CD4 (Homo sapiens, UniProt P01730); assay: BIAcore biosensor binding to soluble CD4; conditions: binding protein soluble recombinant CD4, BIAcore
V3 loop-BPs [2] = assay: ELISA binding of proteins to coated V3 loop-BPs; design: species or system human; conditions: gp120 1 ng/ml, gp41 2 ng/ml, histone H3
Description: This is an ELISA-type experiment using the purified preparation of the V3 loop-BPs which was as described in FIG. 2 +L. The purified preparation of the V3 loop-BPs at different concentrations (12;5 to 200 ng/ml; abscissa) was coated to the plate before incubation with either gp120 (at 1 ng/ml; ), gp41 (at 2 ng/ml;), or histone H3 (1 μg/ml;). […] As a control mAb, we used mAb OKT4A specific for CD4. The abscissa gives the concentration of V3 loop-BPs in ng/ml. The ordinate gives the optical density (OD) values measured at 450 nm as an indicator of reactivity. An OD value less than 0.2 was considered as not significant. mAb OKT4A at 1 mg/ml gave an OD value of 0.20 when used in wells preincubated with either gp120, gp41, or histone H3. Rabbit antiserum against CXCR4 at dilutions as low as 1:200 generated an OD value of 0.15.
The resulting absorbance was measured at 450 nm.

V3 loop-BPs [3] = assay: Inhibition of 5[Kψ(CH2N)PR]-TASP binding to the V3 loop-BPs (biosensor); design: species or system human; conditions: read-out: IC50 for the inhibition of 5[Kψ(CH2N)PR]-TASP binding to the V3 loop-BPs, increasing concentrations of gp120 HIV-1 Lai
SIVmac = SIVmac entry into HeLa cells (β-galactosidase); assay type: cell-based, SIV; conditions: β-galactosidase at 48 hours
[4] = test system: HIV-1 AZT resistant, Saquinavir resistant, Nevirapine resistant; assay: Entry of HIV-1 isolates resistant to antiviral drugs into HeLa cells (β-galactosidase); assay type: cell-based; conditions: heparin 5 mg/ml
Description: HIV entry and replication, results in the activation of the HIV LTR, leading to the expression of the lacZ gene. Therefore, at 24 and 48 hours post-infection, the β-galactosidase activity could be measured in cell extracts directly. Consequently, this latter technique could be used to monitor HIV entry into cells. The HIV dose used corresponded to the amount of virus containing 20-40 ng/ml of p24.
In these experiments, the background values of the β-galactosidase activity were assesed by the samples incubated with the a-CD4 mAb. Furthermore, the effect of heparin (5 mg/ml) was investigated.

HIV-1 JRCSF = assay: HIV entry into HeLa P4-C5 cells (β-galactosidase), HIV-1 JRCSF; assay type: cell-based; conditions: HIV-1 JRCSF; heparin 1, 5, 10 μg/ml
HIV-1 Ada-M = HIV-1 Ada-M entry into HeLa P4-C5 cells (β-galactosidase); assay type: cell-based; conditions: HeLa P4-C5, β-galactosidase at 48 hours
Description: HeLa cells (P4-C5) were treated (incubation at 37° C., 30 min) with AZT (5 μM), (α-CD4 mAb CBT4 (5 μg/ml) before infection with the different HIV isolates in order to obtain the background β-galactosidase activity compared to untreated cells (Control). During the same time, the different HIV isolates were treated (incubation at room temperature, 15 min) with 1, 5, and 10 μg/ml of heparin before addition to untreated cells. The b-galactosidase activity was assayed at 48 hours post-infection as a measure of HIV entry (3 +L7).

HIV-1 Lai = assay: HIV entry into HeLa P4 / P4-C5 cells (β-galactosidase activity), HIV-1 Lai; assay type: cell-based
HIV-1 Bal = assay: HIV entry into HeLa P4-C5 cells (β-galactosidase), HIV-1 Ba-L; assay type: cell-based; conditions: HIV-1 Ba-L; heparin; mAb a-V3 5 μg/ml
HIV-2 ROD = assay: HIV entry into HeLa P4-C5 cells (β-galactosidase), HIV-2 ROD; assay type: cell-based; conditions: heparin 1, 5, 10 μg/ml
VSV/HIV = assay type: cell-based
[5] = test system: HIV-1 pseudotyped Mo-MLV virus; assay: Infection of CEM cells by HIV-1 pseudotyped Mo-MLV virus (p24); conditions: p24 at 48 hours p.i., AZT 5 μM, TASP 5 μM
Description: CEM cells (2×10^5) were infected with the HIV-1 pseudoryped Mo-MLV virus (Experimental procedure) at 95 ng of p24/ml, in the absence (histogram Control) or presence of different additions (as indicated). The infection was monitored by the production of p24, which was measured in the culture supernatant at 48 hours p.i. The mean±SD of duplicate samples is given. Treatment of cells with the different antibodies was as in FIG. 6 +L. For a control of infection, cells were pretreated with 5 μM AZT before infection.
Hela cells were cotransfected by electroporation with plasmids pNL4-3 defective in env gene (Borman et al., 1995) and pE4070A expressing amphotrope envelope glycoproteins of Mo-MLV (Battini et al., 1996). Electroporation (Schwartz et al., 1996) was performed at 200 V, 960 μF, using a 4 mm wide cuvettes in a BIO-Rad Gene Pulser. The pseudotyped virus was recovered from the culture supernatant after 48 hours of culturing.

Row | Molecule | Ka (equilibrium affinity constant) [1] | ka (association rate constant) [1] | kd (dissociation rate constant) [1] | equilibrium affinity constant Ka [1] | Ka (equilibrium affinity constant) (CD4) | ka (association rate constant) (CD4) | kd (dissociation rate constant) (CD4) | also measured
1 | gp120 HIV-1 SF2 2/3: nonglycosylated form of gp120 of HIV-1 SF2 (Env 2-3) | 1.6e+08 M⁻¹ | 3.80 × 10^5 M^−1S^−1 | 2.40 × 10^−3 S^−1 | 1.6e+08 M⁻¹ | – | – | – | –
2 | gp120 HIV-1 SF2: recombinant gp120 of HIV-1 SF2 produced in CHO cells | 2.32e+09 M⁻¹ | 0.65 × 10^5 M^−1S^−1 | 0.028 × 10^−3 S^−1 and 0.03 × 10^−3 S^−1 | 2.3e+09 M⁻¹ | 2.1e+08 M⁻¹ | 11.50 × 10^5 M^−1S^−1 | 5.60 × 10^−3 S^−1 | –
3 | NCTRPNNNTRKSIHIGPGRAFYTGEIIGDIRQAHCNLS [V3 loop-Ba-L, synthetic V3 loop peptide of macrophage-tropic HIV-1 Ba-L] | – | – | – | 1.5e+06 M⁻¹ | – | – | – | –
4 | NCTRPNNNRKSIRIQRGPGRAFVTIGKIGNMRQAHCNIS [V3 loop-Lai, synthetic V3 loop peptide of T-cell tropic HIV-1 Lai] | – | – | – | 5.1e+06 M⁻¹ | – | – | – | –
5 | gp120 HIV-1 Lai: recombinant external envelope glycoprotein of HIV-1 Lai | 2.1e+08 M⁻¹ | 4.40 × 10^5 M^−1S^−1 | 2.10 × 10^−3 S^−1 | 2.1e+08 M⁻¹ | 1.08e+09 M⁻¹ | 5.88 × 10^5 M^−1S^−1 | 54.50 × 10^−3 S^−1 | binding to the purified V3 loop-BPs in ELISA (V3 loop-BPs [2]): bind in a dose-dependent manner; IC50 (V3 loop-BPs [3]): ~3 nM
6 | Heparin [reference compound] | – | – | – | – | – | – | – | effect on SIVmac entry (SIVmac): inhibits; effect on entry of drug-resistant HIV-1 isolates [4]: drastically inhibited; effect on viral entry (β-galactosidase activity at 48 hours post-infection) (HIV-1 JRCSF): no significant effect; effect on HIV-1 Ada-M entry (HIV-1 Ada-M): inhibits; effect on viral entry (β-galactosidase activity at 48 hours post-infection) (HIV-1 Lai; HIV-1 LAI, heparin 1, 5, 10 μg/ml, mAb a-V3 5 μg/ml): inhibits; effect on viral entry (β-galactosidase activity at 48 hours post-infection) (HIV-1 Bal): no significant effect; effect on viral entry (β-galactosidase activity at 48 hours post-infection) (HIV-2 ROD): inhibits
7 | gp120 HIV-1 MN: recombinant gp120 of HIV-1 MN | 4.3e+08 M⁻¹ | 1.90 × 10^5 M^−1S^−1 | 0.44 × 10^−3 S^−1 | 4.3e+08 M⁻¹ | 7.7e+08 M⁻¹ | 2.98 × 10^5 M^−1S^−1 | 38.60 × 10^−3 S^−1 | –
8 | Cc1cn([C@H]2C[C@H](N=[N+]=[N-])[C@@H](CO)O2)c(=O)[nH]c1=O [AZT, reference compound] | – | – | – | – | – | – | – | effect on VSV-HIV pseudotyped virus entry and replication (VSV/HIV): inhibited; effect on infection by HIV-1 pseudotyped Mo-MLV virus [5]: inhibited; inhibition of HIV infection monitored by the production of p24 (HIV-1 Lai; AZT 5 μM): more than 99%
